Results as given in patent US20060223780A1, “Method for administration of capecitabine” (priority 2005, published 2006).

Legend:
MAXF 401 = details: cited from earlier work
tumor [1] = assay: Experiment 2: schedules at the same daily dosages (survival, tumor volume, body weight); format: in vivo
Description: Following is the design of the final experiment with the schedules and dosages used (Table 2): […]

MX-1 = details: cited from earlier work
tumor [2] = assay: Experiment 2 data: Gompertzian growth / drug effect (DE) population modelling with NONMEM; format: in vivo; details: for time of maximal DE after start of treatment, average / time of maximal DE after start of treatment, range: individual data; for time of maximal drug effect (DE) after start of treatment / Day on which the drug effect (DE) is maximal, F'(x)≈0: pooled data; for Day on which the drug effect (DE) is maximal, F'(x)≈0: start of treatment day 17
Protocol: Therefore, the data were then analyzed for the approved (14/7) chemotherapy drug schedule by measuring at each time point after the initiation of therapy the ratio of the (data-derived) expected Gompertzian growth rate in the unperturbed (control) state compared with that observed in the treated state. Curve-fitting was performed by non-linear mixed-effect population modeling using NONMEM software.
The Analysis performed used a non-linear mixed effects population modelling approach with the NONMEM software:
A) with the Gompertzian growth model (TV: tumor volume): • dTV/dt=α*TV−((α/log(TVinf))*TV*log(TV))
B) and the drug effect (DE) model • dTV/dt=α*TV−((α/log(TVinf)*TV*log(TV))*(1−DE)

[3] = approved dose and schedule of capecitabine; cited from earlier work
[4] = Schedule C (2 d on, 5 d off), even at the lowest daily dosages
[5] = non toxic doses, compared between schedules, p.o.

For CCCCCOC(=O)Nc1nc(=O)n([C@@H]2O[C@H](C)[C@@H](O)[C@H]2O)cc1F [capecitabine, 5′-deoxy-5-fluoro-N-[(pentyloxy)-carbonyl]-cytidine], the “toxicity (death of mice)” value (MAXF 401; [4]) is given as “most of the mice died”, the “antitumor efficacy (tumor growth inhibition after 6 weeks of treatment)” value (MAXF 401; [5]) is given as “equivalent” and the toxicity (tumor [1]; higher 2 dose levels, 14 days of treatment compared to shorter treatment durations (dose comparison, Tables 4-1, 4-2)) is given as “increased levels of toxicity”. The safety profile (tumor [1]; higher daily dosage, reduced number of treatment days, reintroduced after a rest period) was “same or a better safety profile”, the toxicity (tumor [1]; higher dose levels 24, 14 days of treatment compared to shorter treatment durations (schedule comparison, Tables 5-1, 5-2)) was “increased levels of toxicity” and the survival curves (tumor [1]; lower 2 dose ranges, 14 days on/7 days off vs 7 days on/7 days off) was “similar”. The “efficacy (tumor volume), schedule comparison at the same daily dosages” value (tumor [1]; lowest dose level) was “advantage in efficacy towards the 14 days on/7 days off schedule”, the efficacy (tumor [1]; schedules with a fewer number of treatment days, at higher dose levels) was “higher efficacy” and the tumor volume reduction (tumor [1]; two lowest dose levels, 14 days on/7 days off vs 7 days on/7 days off) was “similar”. The “toxicity (death of mice)” value (MX-1; [4]) was “most of the mice died”, the “antitumor efficacy (tumor growth inhibition after 6 weeks of treatment)” value (MX-1; [5]) was “equivalent” and the “time of maximal DE after start of treatment, average” value (tumor [2]; 1.5 mmol/kg/day) was 8.3 days. For the same compound, the “time of maximal DE after start of treatment, range” value (tumor [2]; 1.5 mmol/kg/day) was 6 to 11 days, the “time of maximal drug effect (DE) after start of treatment” value (tumor [2]; 1.5 mmol/kg/day) was 10 days and the “Day on which the drug effect (DE) is maximal, F'(x)≈0” value (tumor [2]; 1.5 mmol/kg/day) was 27. The “time of maximal DE after start of treatment, average” value (tumor [2]; 2.25 mmol/kg/day) was 10.1 days, the “time of maximal DE after start of treatment, range” value (tumor [2]; 2.25 mmol/kg/day) was 5 to 18 days and the “time of maximal drug effect (DE) after start of treatment” value (tumor [2]; 2.25 mmol/kg/day) was 8 days. For the same compound, the “Day on which the drug effect (DE) is maximal, F'(x)≈0” value (tumor [2]; 2.25 mmol/kg/day) was 25, the “time point of maximum impact of treatment (averages), into therapy” value (tumor [2]; all dose levels analyzed, 14/7 schedule) was 8.3 to 10.1 days and the “median time to onset of hand-foot syndrome” value [3] was “about 79 days”.
